Measurements published in patent US20100099710A1, “SRC FAMILY KINASE INHIBITORS” (priority 2007, published 2010).

Tests used:
[1] = system: Collagen induced arthritis; assay: Collagen induced arthritis (CIA), rats; type: in vivo; conditions: 5 mg/kg p.o.
Text: (§1) Collagen induced arthritis is a commonly used and widely accepted arthritis model. Immunologically, the model is dominated by a Th1 response; it is antigen specific and depends on both the B- and T-cell response. This model is responsive to most therapies effective in rheumatoid arthritis in humans except NSAIDs.
(§2) Starting from 21 days after the induction of CIA, the mice were weighed twice a week and the inflammation of the four paws was graded from 0 to 4: • 0: Normal • 1: Swelling of 1-2 toe joints or swelling of metatarsus/metacarpus without swelling of toe joints. • 2: Swelling of >2 toe joints or swelling of toe joints and metatarsus/metacarpus • 3: Severe swelling of the paw including metatarsus/metacarpus • 4: Very severe swelling of the paw resulting in chapped skin. The animals are euthanised. The sum of the scores from the four paws is reported as the arthritis score for each mouse. The maximum score obtainable is therefore 16.
(§3) The area under curve (AUC) of the arthritis score was calculated for all mice and used as a disease index. The treatment effect (inhibitory effect) of the compounds is calculated as:
(§4) 1−(AUCtreatment group)/(AUCvehicle group)
Lewis inbred rats (Harlan), 6 females per group, approximately 11 weeks old were immunised intradermally (i.d.) at the base of the tail with 200 μl of CII emulsion (1 mg/ml) in incomplete Freunds adjuvant (FIA). The rats were re-immunised 10 days later with 50 μl of CII emulsion (1 mg/ml) in FIA. From day 12 the inflammation of each paw was graded and calculated as described for the mouse model. The test-compound was administrated orally from day 10 or from day 14. The last day of treatment was the day before the end of the experiment.

[2] = system: Collagen induced arthritis; assay: Collagen induced arthritis (CIA), mice; type: in vivo; conditions: 3 mg/kg p.o.
Procedure: as §1
In order to induce arthritis, the mice were immunised intradermally (i.d.) at the base of the tail with 100 μl of CII emulsion (2 mg/ml) in FCA (2 mg/ml of M. tuberculosis). The mice were re-immunised i.d. 21 days later with 100 μl of CII emulsion (1 mg/ml) in FIA. The test compound was administrated once daily from the initiation of treatment to the day before the end of the experiment.
as §2, §3, §4
The medians of the AUC from all groups were compared using the Kruskal-Wallis test. When P<0.05 in the Kruskal-Wallis test, the Mann Whitney test was used to compare the AUCs for individual mice in drug treated groups with the AUC for mice in the control group which were treated with vehicle (significance level P<0.05).

[3] = Table 7, first experiment, printed treated from day 10
[4] = Table 7, first experiment, treated from day 10
[5] = Table 8, second experiment, treated from day 10
[6] = Table 8, second experiment, treated from day 14

With C[C@]12C=CC(=O)C=C1CC[C@@H]1[C@@H]2[C@@H](O)C[C@@]2(C)[C@H]1CC[C@]2(O)C(=O)CO [Prednisolone] the “AUC of arthritis score, Average” value [1, 3] was 9, the “Percent of vehicle control (group 1)” value [1, 3] was −74% and the “AUC of arthritis score, Average” value [1, 4] was 0.2. The “Percent of vehicle control (group 1)” value [1, 4] was −100%, the “AUC of arthritis score, Average” value [1, 5] was 0 and the “Percent of vehicle control (group 1)” value [1, 5] was “−−100%”. For the same compound, the “AUC of arthritis score, Average” value [1, 6] was 8, the “Percent of vehicle control (group 1)” value [1, 6] was −78% and the “AUC of arthritis score, Average” value ([2]; Table 5) was 27. For the same compound, the “Percent of vehicle control (group 1)” value ([2]; Table 5, vehicle day 10) was −84%, the “AUC of arthritis score, Average” value ([2]; Table 6) was 27 and the “Percent of vehicle control (group 1)” value ([2]; Table 6, vehicle day 28) was −78%.
